Test results reported in patent publication US20160136130A1, “Oral Ultraviolet Resistance Enhancer” (KAO CORPORATION, priority 2013, published 2016).

Columns and labels:
healthy males = experiment: Human crossover test, capsule including glucono-δ-lactone: MED, erythema, pigmentation after UVB; type: in vivo; conditions: 2000 mg glucono-δ-lactone per day orally
Procedure: A 4-week ingestion interval was provided between the first half and the last half of the crossover test. Glucono-δ-lactone, which is a test product, is a food additive (Fuso Chemical Co., Ltd.), and the intake was divided into twice a day for ingestion. After a 3-week ingestion term, irradiation was applied to an upper arm inside part with a UVB intensity of 1 mW/cm^2 for 7 different time periods, each at different sites (an irradiation area of 0.6 cm×1.0 cm per site). After 24 hours from the UVB irradiation, an MED value (the minimum erythema dose) was visually evaluated.
After the 3-week ingestion term, irradiationwith a radiation dose corresponding to 2 MED was applied to an area of 1.5 cm×1.5 cm on the upper arm inside part with a UVB intensity of 1 mW/cm^2. After 24 hours from the UVB irradiation, a ΔAa*value (erythema intensity: a difference from that in the non-irradiation site) was measured using a spectrophotometer. Further, after one week from the UVB irradiation, a ΔL*value (degree of pigmentation: a difference from that in the non-irradiation site) in each irradiation site wasmeasuredusing the spectrophotometer. The obtained values are expressed as Ave.±S.D., n=10, and as for a statistical significance test between the two groups, a paired t-test was performed (*p<0.05, **p<0.01).

MMP13, MMP2, MMP9, MMP14 = experiment: qRT-PCR of UVB-induced dermal denaturation-related molecule expression in skin; type: in vivo, mouse; conditions: 1.0% GDL feed 2 weeks; UVB 40 mJ/cm^2; 24 hours after irradiation
Procedure: HR-1 hairless mice (female, 8 weeks of age) (Japan SLC, Inc.) were bred in conditions of a temperature of 23±1° C., a humidity of 50±1%, and a lighting time of 7:00 to 19:00, and the mice freely ingested feed and water during the test period. […] After the two-week ingestion term, two sites (an irradiation site and a non-irradiation site) of 1.5 cm×1.0 cm were set in contiguity with each other on the back of the mouse under pentobarbital anesthesia, and irradiation was applied to the irradiation site in a UVB exposure dose of 1 mW/cm^2 for 40 seconds (40 mJ/cm^2). After 24 hours from the irradiation, blood was drawn from a heart, and the skin was taken from the UVB non-irradiation site and the irradiation site, from which RNA was extracted. A gene expression level of the molecule, shown below, was quantified from the extracted RNA according to qRT-PCR. As a TaqMan Gene Expression Assay (Applied Biosystems) probe, which specifically detects a target gene, were used Il-1b (Mm01336189_m1; IL-1b, Il-6 (Mm00446190_m1; IL-6), Gm-csf (Mm01290062_m1; GM-CSF), Tnf (Mm00443258_m1; TNFa), Ptgs2 (Mm01307329_m1; COX-2), Tlr3 (Mm01207404_m1; TLR3), Socs3 (Mm00545913_s1; SOCS3), Vcam1 (Mm01320970_m1; VCAM-1), Icam1 (Mm00516023_m1; ICAM-1), Sele (Mm00441278_m1; E-selectin), Edn1 (Mm00438656_m1; EDN1), Kit1 (Mm00442972_m1; SCF), C-kit (Mm00445212_m1; c-Kit), Lif (Mm00434761_m1; LIF), Fgf2 (Mm00433287_m1; FGF2), Hgf (Mm01135185_m1; HGF), Pcna (Mm00448100_g1; PCNA), Ccnd1 (Mm00432359_m1; CyclinD1), Mmp13 (Mm00439491_m1; MMP13), Mmp2 (Mm00439506_m1; MMP2), Mmp9 (Mm00442991_m1; MMP9), and Mmp14(Mm00485054_m1; MMP14). A target gene expression level was corrected by an expression level of an internal standard gene Rplp0 (Mm01974474_gH; RPLP0). […] The obtained values are expressed as Ave.±S.D., n=10, and as for a statistical significance test between many groups, a multiple comparison test according to Dunnett was performed (*p<0.05, **p<0.01 (vs Cont UVB+). • IL-1β: Interleukin-1β • IL-6: Interleukin-6 • GM-CSF: Granulocyte macrophage colony-stimulating factor • TNFα: Tumor necrosis factor α • COX-2: Cyclooxygenase-2 • TLR3: Toll-like receptor 3 • SOCS3: Suppressor of cytokine signaling 3 • VCAM-1: Vascular cell adhesion molecule-1 • ICAM-1: Intercellular adhesion molecule-1 • E-selectin • EDN1: Endothelin 1 • SCF: Stem cell factor (kit-ligand) • c-Kit • LIF: Leukemia inhibitory factor • FGF2: Fibroblast growth factor 2 (basic) • HGF: Hepatocyte growth factor • PCNA: Proliferating cell nuclear antigen • CyclinD1 • MMP13: Matrix metallopeptidase 13 (Collagenase 3) • MMP2: Matrix metallopeptidase 2 (Gelatinase A) • MMP9: Matrix metallopeptidase 9 (Gelatinase B) • MMP14: Matrix metallopeptidase 14 (membrane-inserted)

HR-1 hairless mice = experiment: Ultraviolet-induced erythema (a* value) and epidermal thickness after oral GDL mixed feed; type: in vivo, mouse; conditions: UVB 40 mJ/cm^2
Procedure: HR-1 hairless mice (female, 8 weeks of age) (Japan SLC, Inc.) were bred in conditions of a temperature of 23±1° C., a humidity of 50±1%, and a lighting time of 7:00 to 19:00, and the mice freely ingested feed and water during the test period. […] After the two-week ingestion term, two sites (an irradiation site and a non-irradiation site) of 1.5 cm×1.0 cm were set in contiguity with each other on the back of the mouse under pentobarbital anesthesia, and irradiation was applied to the irradiation site in a UVB exposure dose of 1 mW/cm^2 for 40 seconds (40 mJ/cm^2). A degree of erythema was evaluated after 2 days from the irradiation by a skin color (a*value) measurement using a spectrophotometer SE-6000 (Nippon Denshoku Industries Co., Ltd.). The a*value is an index showing redness of the skin color, and it can be said that the skin turns more red, namely, the more erythema are generated, as the a* value is increased.
After the measurement, blood was drawn from a heart under deep anesthesia, and the skin was taken from the UVB non-irradiation site and the irradiation site. […] As for an epidermal thickness, an average value of epidermal thicknesses at 15 arbitrary points per tissue was defined as the epidermal thickness of the tissue.

[1] = test system: EDN1, c-Kit, LIF, FGF2, HGF; experiment: qRT-PCR of UVB-induced melanin synthesis-related molecule expression in skin; type: in vivo, mouse; conditions: 1.0% GDL feed 2 weeks; UVB 40 mJ/cm^2; 24 hours after irradiation
Procedure: (§1) HR-1 hairless mice (female, 8 weeks of age) (Japan SLC, Inc.) were bred in conditions of a temperature of 23±1° C., a humidity of 50±1%, and a lighting time of 7:00 to 19:00, and the mice freely ingested feed and water during the test period. […] After the two-week ingestion term, two sites (an irradiation site and a non-irradiation site) of 1.5 cm×1.0 cm were set in contiguity with each other on the back of the mouse under pentobarbital anesthesia, and irradiation was applied to the irradiation site in a UVB exposure dose of 1 mW/cm^2 for 40 seconds (40 mJ/cm^2). After 24 hours from the irradiation, blood was drawn from a heart, and the skin was taken from the UVB non-irradiation site and the irradiation site, from which RNA was extracted. A gene expression level of the molecule, shown below, was quantified from the extracted RNA according to qRT-PCR. As a TaqMan Gene Expression Assay (Applied Biosystems) probe, which specifically detects a target gene, were used Il-1b (Mm01336189_m1; IL-1b, Il-6 (Mm00446190_m1; IL-6), Gm-csf (Mm01290062_m1; GM-CSF), Tnf (Mm00443258_m1; TNFa), Ptgs2 (Mm01307329_m1; COX-2), Tlr3 (Mm01207404_m1; TLR3), Socs3 (Mm00545913_s1; SOCS3), Vcam1 (Mm01320970_m1; VCAM-1), Icam1 (Mm00516023_m1; ICAM-1), Sele (Mm00441278_m1; E-selectin), Edn1 (Mm00438656_m1; EDN1), Kit1 (Mm00442972_m1; SCF), C-kit (Mm00445212_m1; c-Kit), Lif (Mm00434761_m1; LIF), Fgf2 (Mm00433287_m1; FGF2), Hgf (Mm01135185_m1; HGF), Pcna (Mm00448100_g1; PCNA), Ccnd1 (Mm00432359_m1; CyclinD1), Mmp13 (Mm00439491_m1; MMP13), Mmp2 (Mm00439506_m1; MMP2), Mmp9 (Mm00442991_m1; MMP9), and Mmp14(Mm00485054_m1; MMP14). A target gene expression level was corrected by an expression level of an internal standard gene Rplp0 (Mm01974474_gH; RPLP0). An analysis was performed using 7500 Fast Real-Time PCR System (Applied Biosystems). The obtained values are expressed as Ave.±S.D., n=10, and as for a statistical significance test between many groups, a multiple comparison test according to Dunnett was performed (*p<0.05, **p<0.01 (vs Cont UVB+). • IL-1β: Interleukin-1β • IL-6: Interleukin-6 • GM-CSF: Granulocyte macrophage colony-stimulating factor • TNFα: Tumor necrosis factor α • COX-2: Cyclooxygenase-2 • TLR3: Toll-like receptor 3 • SOCS3: Suppressor of cytokine signaling 3 • VCAM-1: Vascular cell adhesion molecule-1 • ICAM-1: Intercellular adhesion molecule-1 • E-selectin • EDN1: Endothelin 1 • SCF: Stem cell factor (kit-ligand) • c-Kit • LIF: Leukemia inhibitory factor • FGF2: Fibroblast growth factor 2 (basic) • HGF: Hepatocyte growth factor • PCNA: Proliferating cell nuclear antigen • CyclinD1 • MMP13: Matrix metallopeptidase 13 (Collagenase 3) • MMP2: Matrix metallopeptidase 2 (Gelatinase A) • MMP9: Matrix metallopeptidase 9 (Gelatinase B) • MMP14: Matrix metallopeptidase 14 (membrane-inserted)

HRM-2 hairless mice = experiment: Long-term repeated UVB irradiation (20 weeks): pigmentation, stratum corneum function, skin elasticity; type: in vivo, mouse; conditions: 2.0% GDL feed
Text: After a test feed was previously ingested for 3 weeks, UVB irradiation was applied to the UVB irradiation groups once per day over 20 weeks. As an ultraviolet resistance was obtained by continuous irradiation, a UVB irradiation intensity was increased from 40 mJ/cm^2 to 130 mJ/cm^2 in stages (irradiation in 0 to the first week: 40 mJ/cm^2, irradiation in the second to the forth weeks: 54 mJ/cm^2, irradiation in the fifth to the seventh weeks: 72 mJ/cm^2, irradiation in the eighth to the twelfth weeks: 108 mJ/cm^2, irradiation in the thirteenth to the fourteenth weeks: 120 mJ/cm^2, irradiation in the fifteenth to twentieth weeks: 130 mJ/cm^2). During the UVB irradiation term, the test feed was ingested. At the time of the grouping, and the irradiation 0th, 4th, 8th, 12th, 16th, and 20th weeks, the measurements of L*values using a spectrophotometer, TEWL values using a Tewameter, and stratum corneum moisture contents (the Capacitance value) using a Corneometer were performed. At the irradiation 20th week, skin physical parameters were measured using a Cutometer. The obtained values are expressed as Ave.±S.D., n=10-11, and the multiple comparison test was performed according to Tukey-Kramer.

PCNA, CyclinD1 = experiment: qRT-PCR of UVB-induced proliferation-related molecule expression in skin; type: in vivo, mouse; conditions: 1.0% GDL feed 2 weeks; UVB 40 mJ/cm^2; 24 hours after irradiation
Procedure: (§2) HR-1 hairless mice (female, 8 weeks of age) (Japan SLC, Inc.) were bred in conditions of a temperature of 23±1° C., a humidity of 50±1%, and a lighting time of 7:00 to 19:00, and the mice freely ingested feed and water during the test period. […] After the two-week ingestion term, two sites (an irradiation site and a non-irradiation site) of 1.5 cm×1.0 cm were set in contiguity with each other on the back of the mouse under pentobarbital anesthesia, and irradiation was applied to the irradiation site in a UVB exposure dose of 1 mW/cm^2 for 40 seconds (40 mJ/cm^2). After 24 hours from the irradiation, blood was drawn from a heart, and the skin was taken from the UVB non-irradiation site and the irradiation site, from which RNA was extracted. A gene expression level of the molecule, shown below, was quantified from the extracted RNA according to qRT-PCR. […]

[2] = test system: IL-1β, IL-6, GM-CSF, TNFα, COX-2, TLR3, SOCS3; experiment: qRT-PCR of UVB-induced inflammation-related gene expression in skin; type: in vivo, mouse; conditions: 1.0% GDL feed 2 weeks; UVB 40 mJ/cm^2; 24 hours after irradiation; corrected by Rplp0
Procedure: as §1

[3] = test system: VCAM-1, ICAM-1, E-selectin; experiment: qRT-PCR of UVB-induced adhesion molecule expression in skin; type: in vivo, mouse; conditions: 1.0% GDL feed 2 weeks; UVB 40 mJ/cm^2; 24 hours after irradiation
Procedure: as §2

IGF-1 = conditions: applied to the skin; cited from earlier work
[4] = UVB once per day, 40 to 130 mJ/cm^2, after the UV irradiation 8th week or 12th week

O=C1O[C@H](CO)[C@@H](O)[C@H](O)[C@H]1O [GDL, Glucono-δ-lactone]
significantly reduced: EDN1 expression [1] | FGF2 expression [1] | HGF expression [1] | LIF expression [1] | c-Kit expression [1]
concentration-dependently suppressed: increase of a*values due to the UVB irradiation (erythema) (HR-1 hairless mice; 0.5% and 1% GDL mixed feed for 2 weeks, 2 days after irradiation)
significantly suppressed: increase of epidermal thickness in the irradiation sites compared to control group (HR-1 hairless mice; GDL groups (0.5%, 1%), feed for 2 weeks, HE stain) | COX-2 gene expression in irradiation sites vs control [2] | GM-CSF gene expression in irradiation sites vs control [2] | IL-1β gene expression in irradiation sites vs control [2] | IL-6 gene expression in irradiation sites vs control [2] | SOCS3 gene expression in irradiation sites vs control [2] | TLR3 gene expression in irradiation sites vs control [2] | TNFα gene expression in irradiation sites vs control [2]
significant suppression: a* value in the irradiation sites compared to the irradiation sites in the control group (HR-1 hairless mice; 1% GDL group, feed for 2 weeks, 2 days after irradiation)
suppressed: collagenase (MMP13) expression (MMP13, MMP2, MMP9, MMP14) | gelatinase MMP2 expression (MMP13, MMP2, MMP9, MMP14) | gelatinase MMP9 expression (MMP13, MMP2, MMP9, MMP14) | membrane-associated MMP (MMP14) expression (MMP13, MMP2, MMP9, MMP14) | reduction of the skin viscoelasticity (Uv/Ue) (HRM-2 hairless mice; UVB once per day over 20 weeks, Cutometer at irradiation 20th week) | decrease of L*value caused by the UVB irradiation (pigmentation) (HRM-2 hairless mice; [4]) | decrease of stratum corneum moisture content (the Capacitance value) caused by the UVB irradiation (HRM-2 hairless mice; [4]) | CyclinD1 expression (PCNA, CyclinD1) | PCNA expression (PCNA, CyclinD1) | ICAM-1 expression [3] | VCAM-1 expression [3]
significantly decreased: Δa*values (erythema intensity) compared to the placebo group (healthy males; 2 MED UVB, after 24 hours from the UVB irradiation) | AL* values (degree of pigmentation) compared to the placebo group (healthy males; 2 MED UVB, after one week from the UVB irradiation)
significantly high: MED values (minimum erythema dose) compared to the placebo group (healthy males; after 3-week ingestion, 24 hours after UVB, upper arm inside)

O=C(O)[C@H](O)[C@@H](O)[C@H](O)[C@H](O)CO [gluconic acid]
promoted: IGF-1 secretion (IGF-1)
